Target: T1, xanthine oxidase found in milk (Bos taurus, UniProt P80457)
T1 construct: purchased
Assay: Inhibition of the action of xanthine oxidase in vitro (U.V. spectrophotometry, formation of uric acid from hypoxanthine)
Format: biochemical
Settings: compound at 10^-5 M; hypoxanthine substrate, pH 7.4, 37° C.
Procedure: This trial was performed with xanthine oxidase found in milk. The activity of the enzymatic preparation was measured by following the formation of uric acid starting from hypoxanthine in the presence of oxygen and of a phosphate buffer solution.
(§1) The experimental procedure described hereunder was used:
In the absorption cell, the following solutions were introduced:
1.5 ml of a 0.1 molar phosphate buffer solution (pH=7.4) saturated with oxygen.
0.3 ml of a 1 m molar solution of ethylene diamine tetraacetate.
0.01 ml of a commercial xanthine oxidase solution having a known concentration in enzyme.
0.01 ml of a 3.10^-3 molar ethanolic solution of the compound to be tested.
The contents of the absorption cell were allowed to incubate for 2 minutes and then the enzymatic reaction was started by adding 0.3 ml of a 10^-3 molar solution of hypoxanthine to the absorption cell. The reaction was followed by spectrophotometric recording of the oxidation rate of hypoxanthine at 293 nm and at 37° C. The optical density was automatically registered. The same measurements were performed with a control solution containing all the ingredients referred to above except the compound being tested.
In this way, a curve representing the variation in optical density in comparison with time was obtained with the solution containing the inhibitor on the one hand and devoid of inhibitor on the other. The slope of both curves was measured and expressed in the number of mols of uric acid formed in one minute. Thus, it was possible to compare the values obtained and calculate, in percent, the inhibition of the activity of xanthine oxidase provoked by a compound of the invention.

T1 sequence (P80457 whole entry): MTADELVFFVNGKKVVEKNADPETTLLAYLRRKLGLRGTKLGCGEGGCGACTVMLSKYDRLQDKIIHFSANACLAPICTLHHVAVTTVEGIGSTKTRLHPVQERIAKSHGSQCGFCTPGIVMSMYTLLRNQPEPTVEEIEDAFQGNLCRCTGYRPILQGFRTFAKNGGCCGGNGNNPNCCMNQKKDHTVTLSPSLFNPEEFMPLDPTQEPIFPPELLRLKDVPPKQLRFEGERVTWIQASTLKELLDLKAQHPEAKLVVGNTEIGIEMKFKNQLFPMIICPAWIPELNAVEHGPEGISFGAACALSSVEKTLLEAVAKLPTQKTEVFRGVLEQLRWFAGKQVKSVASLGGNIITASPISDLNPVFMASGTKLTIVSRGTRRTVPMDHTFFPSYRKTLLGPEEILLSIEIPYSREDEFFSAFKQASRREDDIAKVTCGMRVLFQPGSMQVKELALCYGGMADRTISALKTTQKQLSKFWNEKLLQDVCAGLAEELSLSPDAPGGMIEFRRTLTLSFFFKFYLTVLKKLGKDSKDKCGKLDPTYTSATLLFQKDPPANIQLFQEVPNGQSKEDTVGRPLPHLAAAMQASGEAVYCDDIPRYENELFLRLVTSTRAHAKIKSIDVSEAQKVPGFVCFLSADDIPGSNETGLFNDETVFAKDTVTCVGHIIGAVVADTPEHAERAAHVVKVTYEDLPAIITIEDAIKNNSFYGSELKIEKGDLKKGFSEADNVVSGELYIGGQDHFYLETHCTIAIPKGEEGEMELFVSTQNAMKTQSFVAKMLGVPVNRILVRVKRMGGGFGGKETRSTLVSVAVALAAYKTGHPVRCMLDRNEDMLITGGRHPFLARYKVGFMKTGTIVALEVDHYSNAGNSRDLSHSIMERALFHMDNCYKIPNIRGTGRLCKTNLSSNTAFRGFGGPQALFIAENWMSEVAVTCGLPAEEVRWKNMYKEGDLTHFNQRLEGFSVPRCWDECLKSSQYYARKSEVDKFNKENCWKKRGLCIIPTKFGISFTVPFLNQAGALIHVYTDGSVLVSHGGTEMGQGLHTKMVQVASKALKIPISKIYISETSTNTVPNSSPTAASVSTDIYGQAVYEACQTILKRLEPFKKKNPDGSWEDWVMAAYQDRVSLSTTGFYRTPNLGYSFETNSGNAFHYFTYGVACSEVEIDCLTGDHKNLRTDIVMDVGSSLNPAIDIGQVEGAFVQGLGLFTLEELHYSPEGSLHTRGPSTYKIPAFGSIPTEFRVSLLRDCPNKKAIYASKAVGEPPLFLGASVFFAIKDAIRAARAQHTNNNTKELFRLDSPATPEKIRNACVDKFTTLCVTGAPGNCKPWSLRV

Row | Compound | inhibition at 10 µM [%]
1 | Cc1c(Br)c2ccccn2c1C(=O)c1ccc(O)c(Cl)c1 [Methyl Br Cl H, 1-Bromo-2-methyl-3-(3-chloro-4-hydroxy-benzoyl)-indolizine] | 44
2 | Cc1c(Br)c2ccccn2c1C(=O)c1cc(Cl)c(O)c(Cl)c1 [Methyl Br Cl Cl, 1-Bromo-2-methyl-3-(3,5-dichloro-4-hydroxy-benzoyl)-indolizine] | 46
3 | CC(C)c1cc2ccccn2c1C(=O)c1ccc(O)c(Br)c1 [Isopropyl H H Br, 2-Isopropyl-3-(3-bromo-4-hydroxy-benzoyl)-indolizine] | 94
4 | COc1ccc(-c2c(Br)c3ccccn3c2C(=O)c2ccc(O)c(Br)c2)cc1 [4-Methoxy-phenyl Br Br H, 1-Bromo-2-(4-methoxy-phenyl)-3-(3-bromo-4-hydroxy-benzoyl)-indolizine] | 80
5 | CCCc1c(Br)c2ccccn2c1C(=O)c1cc(Br)c(O)c(Br)c1 [n-Propyl Br Br Br, 1-Bromo-2-n-propyl-3-(3,5-dibromo-4-hydroxy-benzoyl)-indolizine] | 95
6 | CCCc1c(Br)c2ccccn2c1C(=O)c1ccc(O)c(Cl)c1 [n-Propyl Br H Cl, 1-Bromo-2-n-propyl-3-(3-chloro-4-hydroxy-benzoyl)-indolizine] | 84
7 | Cc1cc2ccccn2c1C(=O)c1ccc(O)c(Br)c1 [Methyl H H Br, 2-Methyl-3-(3-bromo-4-hydroxy-benzoyl)-indolizine] | 74
8 | CCc1c(Cl)c2ccccn2c1C(=O)c1ccc(O)c(Br)c1 [Ethyl Cl Br H, 1-Chloro-2-ethyl-3-(3-bromo-4-hydroxy-benzoyl)-indolizine] | 34
9 | O=C(c1ccc(O)c(Cl)c1)c1c(-c2cccc(Br)c2)cc2ccccn12 [3-Bromo-phenyl H H Cl, 2-(3-Bromo-phenyl)-3-(3-chloro-4-hydroxy-benzoyl)-indolizine] | 23
10 | CCc1c(Br)c2ccccn2c1C(=O)c1ccc(O)c(Br)c1 [Ethyl Br Br H, 1-Bromo-2-ethyl-3-(3-bromo-4-hydroxy-benzoyl)-indolizine] | 93
11 | CCc1cc2ccccn2c1C(=O)c1ccc(O)c(Cl)c1 [Ethyl H H Cl, 2-Ethyl-3-(3-chloro-4-hydroxy-benzoyl)-indolizine] | 87
12 | Cc1cc2ccccn2c1C(=O)c1cc(Cl)c(O)c(Cl)c1 [Methyl H Cl Cl, 2-Methyl-3-(3,5-dichloro-4-hydroxy-benzoyl)-indolizine] | 84

Target: T2, adenosine deaminase obtained from calf intestine (Bos taurus, UniProt P56658)
T2 construct: purchased
T2 sequence (P56658 1-363): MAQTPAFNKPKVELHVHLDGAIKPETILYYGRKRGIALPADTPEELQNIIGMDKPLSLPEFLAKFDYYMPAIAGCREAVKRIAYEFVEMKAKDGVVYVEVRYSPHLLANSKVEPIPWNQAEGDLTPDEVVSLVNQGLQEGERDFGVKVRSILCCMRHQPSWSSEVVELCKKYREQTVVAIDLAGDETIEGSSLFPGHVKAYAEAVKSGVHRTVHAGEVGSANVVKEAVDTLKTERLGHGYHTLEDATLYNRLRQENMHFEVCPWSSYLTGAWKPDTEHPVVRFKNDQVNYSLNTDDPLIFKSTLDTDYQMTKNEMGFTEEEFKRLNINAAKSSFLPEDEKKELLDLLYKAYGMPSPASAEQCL
Assay: Inhibition of the action of adenosine deaminase in vitro (decrease in absorbance at 265 nm)
Format: biochemical
Settings: 5.10^-5 M adenosine; pH 7.4, 30° C.
Procedure: This test was performed with adenosine deaminase obtained from calf intestine.
as §1
In the absorption cell the following solutions were introduced:
2.7 ml of a 0.1 molar phosphate buffer solution (pH=7.4)
0.3 ml of a 10^-4 or 5.10^-4 molar solution of adenosine in the phosphate buffer solution (final concentration in adenosine: 10^-5 or 5.10^-5 mol) 0.01 ml of a 3.10^-3 molar ethanolic solution of the compound to be studied (about 10 milliunits)
The contents of the absorption cell were allowed to incubate for 2 minutes and then the enzymatic reaction was started by adding 0.03 ml of a commercial adenosine deaminase solution having a known concentration in enzyme. The reaction was performed at 30° C. and followed by spectrophotometric recording of the decrease in absorbance at 265 nm due to the transformation of adenosine into inosine by means of adenosine deaminase. This enzymatic reaction can be represented by the following equation: [formula]
The same measurements were performed with a control solution containing all the ingredients referred to above except the compound being studied. Curves were then plotted representing the decrease in absorbance in comparison with time obtained on the one hand with the solution containing the inhibitor and on the other with the control solution.
The slope of both curves was measured and expressed in the number of mols of inosine formed in one minute. After that, the percent of inhibition of the activity of adenosine deaminase provoked by a compound of the invention was calculated.

Row | Compound | Inhibition of the action of adenosine deaminase in vitro (in %) At 5.10^-5 M adenosine [%]
13 | O=C(c1ccc(O)cc1)c1c(-c2ccccc2)c(Br)c2ccccn12 [Phenyl Br H H, 1-Bromo-2-phenyl-3-(4-hydroxy-benzoyl)-indolizine] | 52
14 | O=C(c1ccc(O)cc1)c1c(-c2cccc(Br)c2)c(Cl)c2ccccn12 [3-Bromo-phenyl Cl H H, 1-Chloro-2-(3-bromo-phenyl)-3-(4-hydroxy-benzoyl)indolizine] | 55
15 | CC(C)c1c(Br)c2ccccn2c1C(=O)c1ccc(O)c(Br)c1 [Isopropyl Br Br H, 1-Bromo-2-isopropyl-3-(3-bromo-4-hydroxy-benzoyl)-indolizine] | 54
16 | COc1c(-c2ccccc2)c(C(=O)c2ccc(O)c(Cl)c2)n2ccccc12 [Phenyl OCH3 Cl H, 1-Methoxy-2-phenyl-3-(3-chloro-4-hydroxy-benzoyl)-indolizine] | 82
17 | COc1c(-c2ccccc2)c(C(=O)c2ccc(O)c(Br)c2)n2ccccc12 [Phenyl OCH3 Br H, 1-Methoxy-2-phenyl-3-(3-bromo-4-hydroxy-benzoyl)-indolizine] | 91
18 | O=C(c1cc(Cl)c(O)c(Cl)c1)c1c(-c2ccccc2)c(Cl)c2ccccn12 [Phenyl Cl Cl Cl, 1-Chloro-2-phenyl-3-(3,5-dichloro-4-hydroxy-benzoyl)-indolizine] | 57
19 | O=C(c1ccc(O)c(Cl)c1)c1c(-c2ccccc2)c(Br)c2ccccn12 [Phenyl Br Cl H, 1-Bromo-2-phenyl-3-(3-chloro-4-hydroxy-benzoyl)-indolizine] | 86
20 | COc1cc(C(=O)c2c(-c3ccc(F)cc3)cc3ccccn23)ccc1O [4-Fluoro-phenyl H H OCH3, 2-(4-Fluoro-phenyl)-3-(3-methoxy-4-hydroxy-benzoyl)-indolizine] | 39

Same assay, conditions: 10^-5 M adenosine; pH 7.4, 30° C.

Row | Compound | Inhibition of the action of adenosine deaminase in vitro (in %) At 10^-5 M adenosine
21 | CCc1oc2ccccc2c1C(=O)c1cc(I)c(O)c(I)c1 [2-ethyl-3-(3,5-diiodo-4-hydroxy-benzoyl)-benzofuran, reference compound] | totally inactive
22 | O=C(c1ccc(O)c(Br)c1)c1c(-c2ccccc2)cc2ccccn12 [Phenyl H H Br, 2-Phenyl-3-(3-bromo-4-hydroxy-benzoyl)-indolizine] | 78%
23 | O=C(c1ccc(O)c(Br)c1)c1c(-c2ccc(F)cc2)cc2ccccn12 [4-Fluoro-phenyl H H Br, 2-(4-Fluoro-phenyl)-3-(3-bromo-4-hydroxy-benzoyl)-indolizine] | 60%
24 | CCc1oc2ccccc2c1C(=O)c1ccc(O)cc1 [2-ethyl-3-(4-hydroxy-benzoyl)-benzofuran, reference compound] | 18%
25 | CCc1oc2ccccc2c1C(=O)c1cc(Br)c(O)c(Br)c1 [2-ethyl-3-(3,5-dibromo-4-hydroxy-benzoyl)-benzofuran, reference compound] | totally inactive
26 | CC(C)c1c(Br)c2ccccn2c1C(=O)c1ccc(O)c(Br)c1 [Isopropyl Br Br H, 1-Bromo-2-isopropyl-3-(3-bromo-4-hydroxy-benzoyl)-indolizine] | 75%
27 | CCCc1cc2ccccn2c1C(=O)c1ccc(O)c(Cl)c1 [n-Propyl H H Cl, 2-n-Propyl-3-(3-chloro-4-hydroxy-benzoyl)-indolizine] | 42%
28 | CCCCc1oc2ccccc2c1C(=O)c1cc(Br)c(O)c(Br)c1 [2-n-butyl-3-(3,5-dibromo-4-hydroxy-benzoyl)-benzofuran, reference compound] | totally inactive
29 | CCCCc1c(Br)c2ccccn2c1C(=O)c1ccc(O)cc1 [n-Butyl Br H H, 1-Bromo-2-n-butyl-3-(4-hydroxy-benzoyl)-indolizine] | 45%
30 | CC(C)c1c(Br)c2ccccn2c1C(=O)c1cc(Br)c(O)c(Br)c1 [Isopropyl Br Br Br, 1-Bromo-2-isopropyl-3-(3,5-dibromo-4-hydroxy-benzoyl)-indolizine] | 57%
31 | O=C(c1cc(Br)c(O)c(Br)c1)c1c(-c2ccccc2)oc2ccccc12 [2-phenyl-3-(3,5-dibromo-4-hydroxy-benzoyl)-benzofuran, reference compound] | 15%
32 | O=C(c1ccc(O)c(Cl)c1)c1c(-c2ccccc2)cc2ccccn12 [Phenyl H H Cl, 2-Phenyl-3-(3-chloro-4-hydroxy-benzoyl)-indolizine] | 58%
33 | CCCCc1cc2ccccn2c1C(=O)c1ccc(O)c(Br)c1 [n-Butyl H H Br, 2-n-Butyl-3-(3-bromo-4-hydroxy-benzoyl)-indolizine] | 60%
34 | CC(C)c1oc2ccccc2c1C(=O)c1cc(Br)c(O)c(Br)c1 [2-isopropyl-3-(3,5-dibromo-4-hydroxy-benzoyl)-benzofuran, reference compound] | totally inactive

Reference: patent publication US4400387A, “Indolizine derivatives and uses in therapeutics” (S. A. Labaz-Sanofi N.V., priority 1979, dated 1983)
